Results from patent publication US11684675B2, “Dimeric collagen hybridizing peptides and methods of using” (University of Utah Research Foundation, priority 2015, dated 2023).

Tests used:
[1] = CD refolding (triple helix assembly) at 10° C. monitored at 225 nm; format: physicochemical; settings: for folded after 2 hours: CD refolding
Description: Conversion was assumed to be at 100% after 96 h incubation at 4° C., and max trimer concentration was measured via CD ellipticity at 10° C. Samples were preheated to 80° C. in the sample cuvette for 10 min before being transferred directly to the sample holder held at a constant 10° C. Sample measurement began immediately. Initial time point for analysis was determined by measuring time for a blank (lx PBS) to thermally equilibrate in these conditions.
For all peptides, conversion was assumed to be at 100% after 96 h incubation at 4° C., and max trimer concentration was measured via CD ellipticity at 10° C. Samples were preheated to 80° C. in the sample cuvette for 10 min before being transferred directly to the sample holder held at a constant 10° C. Sample measurement began immediately. Initial time point for analysis was determined by measuring time for a blank (1×PBS) to thermally equilibrate in these conditions. This was set as the zero point for all peptides, as the large jump in CD due to temperature makes the initial jump irresolvable. (A) Rate of assembly of CHP 9 (60, 30, and 15 μM), over 2 h, monitored at 225 nm. (B) Rate of assembly of CHP 9d (30, 15, and 7.5 μM, corresponding to same CHP strand concentration from panel A), over 2 h, monitored at 225 nm. (C) Rate of assembly of CHP 6 (150 and 75 μM), over 2 h, monitored at 225 nm.
FIGS. 12A and 12B show CD refolding at 10° C. of CMPs monitored at 225 nm. CMPs were heated to 80° C. for 5 minutes before being placed into the CD and initial 2 min of monitored data was removed to eliminate thermal transition. Signal was normalized to that of a fully folded peptide.
(§1) Circular Dichroism: Circular Dichroism (CD) was measured for all peptides at 225 nm. Melting curves were taken on peptides between 10 and 80° C. at a heating rate of 0.5° C./min, with pauses at each 1° C. Refolding experiments were performed after peptide solutions were incubated at 4° C. for at least 12 hours. Concentrations were normalized to strand concentration.

[2] = tested on: crosslinked gelatin films; experiment: Binding of CF-labelled CHPs to crosslinked gelatin films at 37° C. with and without preheating; design: species or system porcine; settings: 20 μM, 37° C. overnight, PBS wash 20 h, FIG. 6C
Description: FIGS. 3A and 3B show the affinity of CHPs to gelatin films as monitored by fluorescence of conjugated CF fluorophore (492 ex, 533 em). (A) Fluorescence of CHPs bound to crosslinked gelatin after incubation at 37° C. overnight with no workup. (B) Fluorescence of CHPs remaining in crosslinked gelatin after incubation at 37° C. overnight without preheating, followed by washing with 1×PBS at 37° C. (20 h).
(A) Fraction of peptide remaining in a crosslinked gelatin film after 17 h at 25° C. (10 total washes). Values are normalized to fluorescence remaining in wells after 6 washes at 4° C. (>95% removal of CHPs 9r, 6r, and 5r). All washes performed in 1×PBS. (B) CHPs (15 μM) premixed into 10% porcine gelatin and preheated to 80° C. (10 min) before being added to a 96 well plate. Excess CHP-gelatin mixture was removed, then the premix was incubated at 4° C. for 2 hours. Wells were washed at 4° C., 5 times (>95% removal of CHPs 9r, 6r, and 5r). Wells were then washed for 2 hours (6 washes total) at 25° C. to monitor CHP remaining in the well. (C) Fluorescence of CHPs remaining in crosslinked gelatin after incubation at 37° C. overnight without preheating, followed by washing with 1×PBS at 37° C. (20 h). (D) Fluorescence of CHPs remaining in crosslinked gelatin after incubation at 37° C. overnight (80° C. preheating, 10 min), followed by washing with 1×PBS at 37° C. (20 h).
Dimeric CHPs were assessed for their ability to bind to collagen strands in crosslinked gelatin films. CHP solutions (20 μM in PBS) were added directly to the crosslinked gelatin films. For heated experiments, CHPs were preheated to 80° C. for 10 minutes before addition. Peptides were allowed to fully equilibrate with the gel at 37° C. overnight before being exposed to repeated washes (4×, PBS) at 37° C. to fully remove any non-specifically bound peptide and to determine binding level at body temperature. To measure retention, peptides were bound as previously described, but were subsequently washed with PBS 37° C. (5×1 h, 1×12 h) to measure retention within the gelatin films. […] Additionally, after a period of 20 hours, higher level of the dimeric CHP remained in the gelatin compared to the monomeric CHP.
A major limitation of the use of CHP in vivo, is the requirement of the triple helix to be fully disassembled before being injected. […] For this test, peptide solutions were allowed to warm to room temperature before being added (50 μL, 20 μM) to previously prepared crosslinked gelatin films. Solutions were then incubated at 37° C. overnight before removing the solution. Wells were washed at 37° C. with PBS (20 h) to determine binding. Preheated samples were prepared and incubated in the same way, but with preheating (80° C., 10 min) before being added to the crosslinked gelatin wells.

[3] = Triple helix melting point (Tm) by circular dichroism at 225 nm; format: physicochemical; settings: for melting point: Example 3; for Tm (° C.): triple helix melting
Description: (§2) FIGS. 5A, 5B, 5C, and 5D show the thermal denaturation of fully assembled CHPs and subsequent cooling to initial temperature. Samples were heated at 1° C./min from their initial temperature final temperature of 90° C. Sample was then cooled at 1° C./min to the starting temperature. (A) Thermal denaturation and partial reassembly of CHP CF-6d (150 μM) monitored at 225 nm. Sample was measured from 4° C. to 90° C. (B) Thermal denaturation and partial reassembly of CHP […] (75 μM, corresponding to 150 μM strand concentration) monitored at 225 nm. Sample was measured from 4° C. to 90° C. (C) Thermal denaturation and partial reassembly of CHP CF-9 (150 μM) monitored at 225 nm. Sample was measured from 10° C. to 90° C. (D) Thermal denaturation and partial reassembly of CHP CF-9d (75 μM, corresponding to 150 μM strand concentration) monitored at 225 nm. Sample was measured from 10° C. to 90° C.
FIGS. 11A and 11B show the First Derivative of mean residue ellipticity (MRE) at 225 nm in CD. […] There is no significant change in melting point between the monomeric and dimeric forms of the same peptide.
as §1

[4] = CD thermal denaturation and cooling gradient 90 to 4° C., refolding; format: physicochemical; settings: cooling 1° C./min from 90° C.
Description: as §2
The dimeric CHPs can also form their triple helices much more readily during slow cooling when compared to their monomeric counterparts. After thermal denaturation and heating to 90° C., the peptides were exposed to a decreasing thermal gradient from 90 to 4° C. (1° C./min) during which the ellipticity at 225 nm was monitored. During these cooling gradients, the dimeric CHPs began refolding at a higher temperature than the monomers with the same number of repeat units. […]

porcine gelatin = experiment: SPR gelatin capture by immobilized biotinylated CHPs; format: binding; settings: gelatin 25 μg/mL
Description: FIGS. 7A and 7B show SPR data for porcine gelatin capture by immobilized CHPs. […] Gelatin was applied to the sensor surface during the association phase, followed by elution with blank during dissociation phase. Association occurred for 981 s, followed by dissociation for 1800 s. Values were normalized to a 100% biotin lane, and were adjusted to the mass of peptide immobilized in each well. (A) Preheated (80° C., 10 min), quenched (0° C., 30 s) gelatin (25 μg/mL) was applied to the sensor at an ambient temperature of 37° C. (B) Preheated (80° C., 10 min), quenched (0° C., 30 s) gelatin (25 μg/mL) was applied to the sensor at an ambient temperature of 15° C.
Surface Plasmon Resonance (SPR). […] However, there were major differences observed during the association phase. At 37° C., there was a much higher amount of gelatin adsorbed to all the peptides tested on the surface when compared to 15° C. […] At 15° C., gelatin adsorbed to the surface at a much slower rate. […] However, this lower adsorption rate can be due to a reduced diffusion rate near the surface or a more condensed gelatin structure at this lower temperature.
Dimeric CHP is able to hybridize effectively with denatured collagens with faster folding kinetics than current, monomeric CHPs. Surface plasmon resonance (SPR) was used to measure the ability of the CHPs to trap denatured collagen from solution.

(GPO)6 [compound 6]
refolding after two hours of incubation ([1]; 10° C., same strand concentration): did not reach its half maximal refolding after two hours
folded after 2 hours ([1]; 75 μM): 28%
binding to gelatin wells at 37° C. without preheating [2]: do not have a strong enough affinity to the gelatin to bind effectively at physiologic temperature
melting point [3]: 37 °C
Tm (° C.) ([3]; Table 1): 37 (SEQ ID NO: 59) ° C.
Tm (° C.) ([3]; Table 2): 37 (SEQ ID NO: 59) ° C.
temperature below the reported Tm until which no significant refolding was observed [4]: approximately 10 °C

(GPO)9 [compound 9]
folded after 2 hours ([1]; 60 μM): 40%
binding to gelatin wells at 37° C. without preheating [2]: unable to bind significantly without preheating
melting point [3]: 68 °C
Tm (° C.) ([3]; Table 1): 68 (SEQ ID NO: 56) ° C.
Tm (° C.) ([3]; Table 2): 68 (SEQ ID NO: 56) ° C.
temperature below the reported Tm until which no significant refolding was observed [4]: ~15 °C

[(GPO)9G3)2KG [9d]
increase in refolding rate compared to monomeric GPO9 ([1]; 10° C., FIG. 12A): two-fold
ability to bind gelatin (porcine gelatin; 15° C.): maintained its greater ability to bind gelatin
ability to bind gelatin (porcine gelatin; 37° C.): higher ability to bind gelatin than that of an equivalent number of strands in their monomeric counterparts
binding to gelatin wells at 37° C. without preheating [2]: bind more significantly than the GPO9 monomer without preheating
Tm (° C.) ([3]; Table 1): 69 (SEQ ID NO: 55) ° C.
Tm (° C.) ([3]; Table 2): 69 (SEQ ID NO: 55) ° C.
